Data taken from US20250298000A1, “PREPARATION OF CULTURE MEDIUM AND USE THEREFOR IN WATER TOXICITY CO[…]” (CHANGCHUN INSTITUTE OF APPLIED CHEMISTRY, CHINESE ACADEMY …, priority 2022, published 2025).

System: Bacillus subtilis
Assay: Colorimetric detection of water toxicity with Bacillus subtilis cultured in CM-Fe medium and potassium ferricyanide (Prussian blue, absorbance at 690 nm, 96-well plate)
Assay type: cell-based
Details: bacterial suspension OD600=2, 8 mM potassium ferricyanide, 20 min reaction; for detection limit (toxicant concentration discerned with naked eyes by color difference): sample photographs
Method: The inhibition rate is specifically calculated as: Inhibition %=(1−Abstox/Abscon)×100(1); • wherein, Abstox represents the peak value of the ultraviolet absorption spectrum of the sample to be detected at 690 nm, and Abscon represents the peak value of the ultraviolet absorption spectrum of the standard sample at 690 nm; • the IC50 value is calculated by: taking a concentration of toxicant in the water to be detected as the abscissa and the inhibition rate as the ordinate, drawing a curve, and fitting to obtain the IC50 value.
20 g of glucose, 15 g of peptone, 5 g of NaCl, 0.5 g of yeast extract and 0.001-10 g of ferric citrate were weighed, mixed and ground into powder by a dry grinding method in a ball mill to obtain a new culture medium CM-Fe.
1-100 g of CM and 1-100 g of CM-Fe culture media were added into two 1 L beakers respectively, adjusted to a volume of 1 L by adding deionized water, stirred, ultrasonicated, dissolved, and aliquoted in six 500 mL triangular flasks (3 for each culture medium), which were sealed with a sterile filtration sealing film, sterilized with high-temperature and high-pressure at 121° C. (98 kPa) for 5-40 min, and cooled down for later use.
Bacillus subtilis was inoculated into sterilized CM and CM-Fe culture media respectively, and cultured in a constant temperature shaker at 50-300 rpm at 37° C. for 8-30 h. The cultured bacterial liquid was centrifuged at 3000-10000 rpm for 1-20 min, then centrifuged and washed twice with 0.1-30% NaCl solution to remove the culture medium. Finally, Bacillus subtilis was resuspended in 0.1-30% NaCl solution and placed at 0-30° C. for later use.
100 μL of two suspensions of bacteria with OD600=2, 50 μL of Cu^2+ at varying concentrations and 50 μL of 8 mM potassium ferricyanide were mixed in the wells of a 96-well plate and reacted for 20 min. […] At low Cu^2+, concentrations, the color of the toxic samples was similar to that of the non-toxic samples. […] The final concentrations of toxicants from top to bottom were 0 mg/L, 0.49 mg/L, 0.98 mg/L, 1.95 mg/L, 3.9 mg/L, 7.8 mg/L and 15.63 mg/L, respectively. […]

SMILES | IC20 fitted from inhibition rate curve (peak at 690 nm) | detection limit (toxicant concentration discerned with naked eyes by color difference)
[Cu+2] [Cu^2+] | 2.4 µg/mL | 3.9 mg/L
[Hg+2] [Hg^2+] |  | 0.49 mg/L
